# Assay results reported in patent publication US9951068B2 (Proximagen Limited, priority 2013, dated 2018).
# Where a name gives a salt, the structure may show the parent alone.
# Target: human ether a go-go related gene (hERG) K+ channel (Homo sapiens (Human), UniProt Q12809)
# Assay: hERG assay, IonWorks patch clamp electrophysiology
# Assay type: cell-based
# Details: Chinese Hamster Lung cell line stably expressing hERG; max assay concentration 11 uM
# Procedure: Compounds of the invention were tested for inhibition of the human ether a go-go related gene (hERG) K^+ channel using IonWorks patch clamp electrophysiology. 8 Point concentration-response curves were generated on two occasions using 3-fold serial dilutions from the maximum assay concentration (11 uM). Electrophysiological recordings were made from a Chinese Hamster Lung cell line stably expressing the full length hERG channel. Single cell ion currents were measured in the perforated patch clamp configuration (100 ug/mL amphoterocin) at room temperature using an IonWorks Quattro instrument. The internal solution contained 140 mM KCl, 1 mM MgCl2, 1 mM EGTA and 20 mM HEPES and was buffered to pH 7.3. The external solution contained 138 mM NaCl, 2.7 mM KCl, 0.9 mM CaCl2, 0.5 mM MgCl2, 8 mM Na2HPO4 and 1.5 mM KH2PO4, and was buffered to pH 7.3. […] This sequence was repeated 5 times at a frequency of 0.25 Hz. Currents were measured from the tail step at the 5th pulse, and referenced to the holding current. Compounds were incubated for 6-7 min prior to a second measurement of the hERG signal using an identical pulse train. […] A control compound (quinidine) was used (see Table 20 below).
# human ether a go-go related gene (hERG) K+ channel, sequence (Q12809 whole entry): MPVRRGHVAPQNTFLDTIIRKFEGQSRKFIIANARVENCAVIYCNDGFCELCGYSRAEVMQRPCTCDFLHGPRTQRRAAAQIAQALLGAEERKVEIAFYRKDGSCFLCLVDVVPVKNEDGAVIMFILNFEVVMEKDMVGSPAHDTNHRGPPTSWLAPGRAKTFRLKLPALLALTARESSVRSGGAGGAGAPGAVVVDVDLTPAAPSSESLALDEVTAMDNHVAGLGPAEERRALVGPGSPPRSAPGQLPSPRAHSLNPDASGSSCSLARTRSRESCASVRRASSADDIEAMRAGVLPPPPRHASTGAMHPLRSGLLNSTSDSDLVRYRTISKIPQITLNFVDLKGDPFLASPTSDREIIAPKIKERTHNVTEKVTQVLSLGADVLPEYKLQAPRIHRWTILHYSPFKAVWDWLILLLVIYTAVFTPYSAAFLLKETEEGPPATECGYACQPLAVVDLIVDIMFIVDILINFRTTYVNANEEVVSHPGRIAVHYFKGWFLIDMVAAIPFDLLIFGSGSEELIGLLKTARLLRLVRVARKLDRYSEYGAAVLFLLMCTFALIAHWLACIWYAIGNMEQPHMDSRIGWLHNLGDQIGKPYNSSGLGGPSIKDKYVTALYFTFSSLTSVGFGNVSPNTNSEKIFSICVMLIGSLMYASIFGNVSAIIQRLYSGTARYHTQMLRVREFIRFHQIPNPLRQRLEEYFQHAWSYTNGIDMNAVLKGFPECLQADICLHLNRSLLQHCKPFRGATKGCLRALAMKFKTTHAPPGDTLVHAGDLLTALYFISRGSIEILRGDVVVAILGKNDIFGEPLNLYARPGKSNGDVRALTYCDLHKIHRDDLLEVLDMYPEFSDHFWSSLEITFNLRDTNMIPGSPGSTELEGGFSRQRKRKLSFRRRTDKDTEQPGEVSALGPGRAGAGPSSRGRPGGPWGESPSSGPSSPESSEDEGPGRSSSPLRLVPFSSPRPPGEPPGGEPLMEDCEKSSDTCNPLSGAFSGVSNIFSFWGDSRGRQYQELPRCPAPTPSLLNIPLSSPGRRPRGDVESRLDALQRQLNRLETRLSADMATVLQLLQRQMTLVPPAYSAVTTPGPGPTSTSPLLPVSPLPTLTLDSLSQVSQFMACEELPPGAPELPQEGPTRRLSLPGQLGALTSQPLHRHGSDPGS
row,Compound,IC50 [nM]
1,"Clc1ccc(-n2c(-c3ccncc3)nc3ccncc32)cc1 [Example 2, 4-[3-(4-Chlorophenyl)-3H-imidazo[4,5-c]pyridin-2-yl]pyridine]",> 10000
2,"Clc1ccc(-n2c(-c3ccc(CN4CCOCC4)nc3)nc3ccncc32)cc1 [Example 3, 4-({5-[3-(4-Chlorophenyl)-3H-imidazo[4,5-c]pyridin-2-yl]pyridin-2-yl}methyl)morpholine]",> 10000
3,"O=C1CN(c2ncc(-c3nc4ccncc4n3-c3ccc(F)cc3)cn2)CCN1 [Example 12, 4-{5-[3-(4-Fluorophenyl)-3H-imidazo[4,5-c]pyridin-2-yl]pyrimidin-2-yl}piperazin-2-one]",> 10000
4,"Clc1ccc(-n2c(-c3cnc(N4CCNCC4)o3)nc3ccncc32)cc1 [Example 18, 1-{5-[3-(4-Chlorophenyl)-3H-imidazo[4,5-c]pyridin-2-yl]-1,3-oxazol-2-yl}piperazine dihydrochloride]",> 10000
5,"Fc1ccc(-n2c(-c3cnc(NC4CCOCC4)nc3)nc3ccncc32)cc1 [Example 20, 5-[3-(4-Fluorophenyl)-3H-imidazo[4,5-c]pyridin-2-yl]-N-(oxan-4-yl)pyrimidin-2-amine]",> 10000
6,"Cc1ccc(-n2c(-c3cnc(N4CCOCC4)nc3)nc3ccncc32)c(F)c1 [Example 53, 4-{5-[3-(2-Fluoro-4-methylphenyl)-3H-imidazo[4,5-c]pyridin-2-yl]pyrimidin-2-yl}morpholine]",> 10000
7,"Fc1ccc(-n2c(-c3ccc(N4CCOCC4)nc3)nc3ccncc32)cc1 [Example 54, 4-{5-[3-(4-Fluorophenyl)-3H-imidazo[4,5-c]pyridin-2-yl]pyridin-2-yl}morpholine]",> 10000

# Target: purified recombinantly expressed human SSAO (Homo sapiens (Human), UniProt Q16853)
# Sequence (Q16853 29-763): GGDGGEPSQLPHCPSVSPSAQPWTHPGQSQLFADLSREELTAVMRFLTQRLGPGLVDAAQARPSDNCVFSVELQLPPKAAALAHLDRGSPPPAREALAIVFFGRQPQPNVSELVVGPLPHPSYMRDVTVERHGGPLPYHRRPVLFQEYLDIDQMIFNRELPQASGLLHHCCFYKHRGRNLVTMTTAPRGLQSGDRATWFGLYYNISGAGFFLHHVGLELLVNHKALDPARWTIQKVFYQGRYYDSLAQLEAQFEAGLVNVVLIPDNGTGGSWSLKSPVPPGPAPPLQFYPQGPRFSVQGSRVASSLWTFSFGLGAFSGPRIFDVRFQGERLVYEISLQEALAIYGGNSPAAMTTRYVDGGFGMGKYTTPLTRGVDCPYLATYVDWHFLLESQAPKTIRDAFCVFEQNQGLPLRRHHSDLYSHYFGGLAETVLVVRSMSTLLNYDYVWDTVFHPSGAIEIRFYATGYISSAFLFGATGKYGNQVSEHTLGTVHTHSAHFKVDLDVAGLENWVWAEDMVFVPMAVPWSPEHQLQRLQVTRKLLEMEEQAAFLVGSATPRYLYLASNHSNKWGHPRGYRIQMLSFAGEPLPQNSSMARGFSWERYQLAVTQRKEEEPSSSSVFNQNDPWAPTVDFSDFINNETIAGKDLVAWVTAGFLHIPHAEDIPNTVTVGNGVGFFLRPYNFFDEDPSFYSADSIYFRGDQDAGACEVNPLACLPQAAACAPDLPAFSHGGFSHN
# Assay: SSAO enzyme inhibition assay (HRP-coupled hydrogen peroxide detection or 14C-benzaldehyde detection, benzylamine substrate)
# Assay type: biochemical
# Details: SSAO inhibitory activity, human recombinant SSAO, RT
# Procedure: All primary assays were performed at RT. with purified recombinantly expressed human SSAO. Enzyme was prepared essentially as described in Öhman et al. (Protein Expression and Purification 46 (2006) 321-331). In addition, secondary- and selectivity assays were performed using SSAO prepared from various tissues or purified rat recombinant SSAO. The enzyme activity was assayed with benzylamine as substrate by measuring either benzaldehyde production, using ^14C-labeled substrate, or by utilizing the production of hydrogen peroxide in a horseradish peroxidase (HRP) coupled reaction. Briefly, test compounds were dissolved in dimethyl sulfoxide (DMSO) to a concentration of 10 mM. Dose-response measurements were assayed by either creating 1:10 serial dilutions in DMSO to produce a 7 point curve or by making 1:3 serial dilutions in DMSO to produce 11 point curves.
# In a horseradish peroxidase (HRP) coupled reaction, hydrogen peroxide oxidation of 10-acetyl-3,7-dihydroxyphenoxazine produced resorufin, which is a highly fluorescent compound (Zhout and Panchuk-Voloshina. Analytical Biochemistry 253 (1997) 169-174; Amplex® Red Hydrogen Peroxide/peroxidase Assay kit, Invitrogen A22188). Enzyme and compounds in 50 mM sodium phosphate, pH 7.4 were set to pre-incubate in flat-bottomed microtiter plates for approximately 15 min before initiating the reaction by addition of a mixture of HRP, benzylamine and Amplex reagent. Benzylamine concentration was fixed at a concentration corresponding to the Michaelis constant, determined using standard procedures. Fluorescence intensity was then measured at several time points during 1-2 h, exciting at 544 nm and reading the emission at 590 nm. For the human SSAO assay final concentrations of the reagents in the assay wells were: SSAO enzyme 1 ug/ml, benzylamine 100 uM, Amplex reagent 20 uM, HRP 0.1 U/mL and varying concentrations of test compound. The inhibition was measured as % decrease of the signal compared to a control without inhibitor (only diluted DMSO). The background signal from a sample containing no SSAO enzyme was subtracted from all data points. Data was fitted to a four parameter logistic model and IC50 values were calculated using the GraphPad Prism 4 or XLfit 4 programs.
# SSAO activity was assayed using 14C-labeled benzylamine and analysed by measuring radioactive benzaldehyde. In a white 96-well optiplate (Packard), 20 uL of diluted test compound was pre-incubated at room temperature with 20 uL SSAO enzyme for approximately 15 min with continuous agitation. All dilutions were made with PBS. The reaction was initiated by adding 20 uL of the benzylamine substrate solution containing [7-14C] Benzylamine hydrochloride (CFA589, GE Healthcare). The plate was incubated for 1 h as above after which the reaction was stopped by acidification (10 uL 1M aq HCl). Then 90 uL Micro Scint-E solution (Perkin-Elmer) was added to each well and the plate was continuously mixed for 15 min. Phase separation occurred instantly and activity was read in a Topcount scintillation counter (Perkin-Elmer). In the final reaction well, the human recombinant SSAO concentration was 10 ug/ml. In order to optimize sensitivity, the substrate concentration was decreased as compared to the HRP coupled assay in order to get a higher fraction of radioactive product. In the human SSAO assay, benzylamine concentration was 40 uM (0.2 uCi/mL). Data was analysed as above.
row,Compound,IC50 [nM]
1,"Fc1ccc(-n2c(-c3ccc(OC4CCOCC4)nc3)nc3ccncc32)cc1 [Example 113, 5-[3-(4-Fluorophenyl)-3H-imidazo[4,5-c]pyridin-2-yl]-2-(oxan-4-yloxy)pyridine]",< 50
2,"O=c1cc(-c2nc3ccncc3n2-c2ccc(F)cc2)ccn1C1CC1 [Example 115, 1-Cyclopropyl-4-[3-(4-fluorophenyl)-3H-imidazo[4,5-c]pyridin-2-yl]-1,2-dihydropyridin-2-one]",< 50
3,"Cc1ccc(-n2c(-c3cnc(N4C[C@@H](C)O[C@@H](C)C4)nc3)nc3ccncc32)cn1 [Example 118, (2R,6S)-2,6-Dimethyl-4-{5-[3-(6-methylpyridin-3-yl)-3H-imidazo[4,5-c]pyridin-2-yl]pyrimidin-2-yl}morpholine]",< 50
4,"Clc1ccc(-n2c(-c3ccccn3)cc3ccncc32)cc1 [Example 121, 2-[1-(4-Chlorophenyl)-1H-pyrrolo[2,3-c]pyridin-2-yl]pyridine]",< 50
5,Clc1ccc(-n2c(-c3cncnc3)cc3ccncc32)cc1 [Example 123],< 50
6,"Clc1ccc(-n2c(-c3cnccn3)cc3ccncc32)cc1 [Example 124, 2-[1-(4-Chlorophenyl)-1H-pyrrolo[2,3-c]pyridin-2-yl]pyrazine]",< 50
7,"Cc1nc(C)c(-c2cc3ccncc3n2-c2ccc(Cl)cc2)[nH]1 [Example 126, 5-[1-(4-Chlorophenyl)-1H-pyrrolo[2,3-c]pyridin-2-yl]-2,4-dimethyl-1H-imidazole]",< 50
8,"Clc1ccc(-n2c(-c3cnc(N4CCOCC4)nc3)cc3ccncc32)cc1 [Example 127, 4-{5-[1-(4-Chlorophenyl)-1H-pyrrolo[2,3-c]pyridin-2-yl]pyrimidin-2-yl}morpholine]",< 50
9,"Cc1cc(N2CCOCC2)ncc1-c1cc2ccncc2n1-c1ccc(Cl)cc1 [Example 129, 4-{5-[1-(4-Chlorophenyl)-1H-pyrrolo[2,3-c]pyridin-2-yl]-4-methylpyridin-2-yl}morpholine; bis(trifluoroacetic acid)]",< 50
10,"Brc1ccc(-n2c(-c3cnc(N4CCOCC4)nc3)cc3ccncc32)cc1 [Example 133, 4-{5-[1-(4-Bromophenyl)-1H-pyrrolo[2,3-c]pyridin-2-yl]pyrimidin-2-yl}morpholine]",< 50
11,"Cn1nccc1-c1cc2ccncc2n1-c1ccc(Cl)cc1 [Example 134, 5-[1-(4-Chlorophenyl)-1H-pyrrolo[2,3-c]pyridin-2-yl]-1-methyl-1H-pyrazole]",< 50
12,"Cn1cc(-c2cc3ccncc3n2-c2ccc(Cl)cc2)cn1 [Example 135, 4-[1-(4-Chlorophenyl)-1H-pyrrolo[2,3-c]pyridin-2-yl]-1-methyl-1H-pyrazole]",< 50
13,"CN(C)c1ncc(-c2cc3ccncc3n2-c2ccc(Cl)cc2)cn1 [Example 137, 5-[1-(4-Chlorophenyl)-1H-pyrrolo[2,3-c]pyridin-2-yl]-N,N-dimethylpyrimidin-2-amine; bis(trifluoroacetic acid)]",< 50
14,"O=c1cc(-c2cc3ccncc3n2-c2ccc(Cl)cc2)ccn1C1CC1 [Example 138, 4-[1-(4-Chlorophenyl)-1H-pyrrolo[2,3-c]pyridin-2-yl]-1-cyclopropyl-1,2-dihydropyridin-2-one]",< 50
15,"Clc1ccc(-n2c(-c3cnc(NC4CCOCC4)nc3)cc3ccncc32)cc1 [Example 139, 5-[1-(4-Chlorophenyl)-1H-pyrrolo[2,3-c]pyridin-2-yl]-N-(oxan-4-yl)pyrimidin-2-amine]",< 50
16,"Clc1ccc(-n2c(-c3ccc(CN4CCOCC4)nc3)cc3ccncc32)cc1 [Example 140, 4-({5-[1-(4-Chlorophenyl)-1H-pyrrolo[2,3-c]pyridin-2-yl]pyridin-2-yl}methyl)morpholine]",< 50
17,"Cn1ccc(-c2cc3ccncc3n2-c2ccc(Cl)cc2)cc1=O [Example 143, 4-[1-(4-Chlorophenyl)-1H-pyrrolo[2,3-c]pyridin-2-yl]-1-methyl-1,2-dihydropyridin-2-one]",< 50
18,"Cn1c(-c2cc3ccncc3n2-c2ccc(Cl)cc2)cccc1=O [Example 145, 6-[1-(4-Chlorophenyl)-1H-pyrrolo[2,3-c]pyridin-2-yl]-1-methyl-1,2-dihydropyridin-2-one]",< 50
19,"Nc1cc(-c2cc3ccncc3n2-c2ccc(Cl)cc2)ccn1 [Example 147, 4-[1-(4-Chlorophenyl)-1H-pyrrolo[2,3-c]pyridin-2-yl]pyridin-2-amine]",< 50
20,"Fc1cncc(-c2cc3ccncc3n2-c2ccc(Cl)cc2)c1 [Example 148, 3-[1-(4-Chlorophenyl)-1H-pyrrolo[2,3-c]pyridin-2-yl]-5-fluoropyridine]",< 50
21,"Clc1ccc(-n2c(-c3cnc(NCC4CC4)nc3)cc3ccncc32)cc1 [Example 149, 5-[1-(4-Chlorophenyl)-1H-pyrrolo[2,3-c]pyridin-2-yl]-N-(cyclopropylmethyl)pyrimidin-2-amine]",< 50
22,"Cc1cnccc1-c1cc2ccncc2n1-c1ccc(Cl)cc1 [Example 154, 4-[1-(4-Chlorophenyl)-1H-pyrrolo[2,3-c]pyridin-2-yl]-3-methylpyridine]",< 50
23,"O=c1cc(-c2cc3ccncc3n2-c2ccccc2)ccn1C1CC1 [Example 155, 1-Cyclopropyl-4-{1-phenyl-1H-pyrrolo[2,3-c]pyridin-2-yl}-1,2-dihydropyridin-2-one]",200 to 1200
